Test results taken from patent publication US10576102B2, “KOC1-derived peptide and vaccine including same” (ONCOTHERAPY SCIENCE, INC., priority 2014, dated 2020).
“Also recorded” adds a separate entry of the source.

Legend:
peptide-pulsed C1R-A03 [1] = assay: In vitro CTL induction, IFN-gamma ELISPOT assay (HLA-A*0301); assay type: cell-based, human; details: CTLs induced with peptide-pulsed DCs from HLA-A*0301-positive volunteers; day 21; vs peptide-pulsed C1R-A03, compared with unpulsed control
Method: C1R (C1R-A03) that stably expresses HLA-A*0301 was used as a stimulator cell. A cDNA encoding the open-reading frame of HLA-A*0301 was amplified by PCR and cloned into an expression vector. C1R cells were transfected with the expression vector, and then selected using G418 (Invitrogen) for two weeks. The G418-selected cells were seeded into wells containing G418-added culture medium in a 96-well plate, and further cultured for 30 days. The exogenous HLA-A*0301 expression in C1R cells was verified by flow cytometric analysis.
Monocyte-derived dendritic cells (DCs) were used as the antigen-presenting cell to induce a cytotoxic T lymphocyte (CTL) response against peptides presented on human leukocyte antigens (HLAs). As described in the other sections, DCs were generated in vitro (Nakahara S et al., Cancer Res 2003, 63(14): 4112-8). Specifically, peripheral-blood mononuclear cells isolated from healthy volunteers (HLA-A*0301-positive) with the Ficoll-Paque plus solution (Pharmacia) were separated by attaching to plastic tissue culture dishes (Becton Dickinson) and concentrated as a monocyte fraction. The monocyte-concentrated population was cultured in the presence of 1000 IU/ml granulocyte macrophage colony-stimulating factor (R&D System) and 1000 IU/ml interleukin(IL)-4 (R&D System) in an AIM-V medium (Invitrogen) containing 2% heat-inactivated autologous serum (AS). After seven days of culturing, the cytokine-induced DCs were pulsed with 20 micro-g/ml each of the synthesized peptides in an AIM-V medium at 37 degrees C. for three hours in the presence of 3 micro-g/ml beta 2-microglobulin. The generated cells appeared to express on their cell surface DC-associated molecules such as CD80, CD83, CD86 and HLA class II (data not shown). Next, these peptide-pulsed DCs were inactivated by X-ray irradiation (20 Gy), and mixed in a 1:20 ratio with autologous CD8^+ T cells obtained by positive selection using the CD8 Positive Isolation Kit (Dynal). These culture products were seeded in a 48-well plate (Corning). Each well was made to contain 1.5×10^4 peptide-pulsed DCs, 3×10^5 CD8^+ T cells and 10 ng/ml IL-7 (R&D System) in 0.5 ml of the AIM-V/2% AS medium. Three days later, these culture products were added with a final concentration of 20 IU/ml IL-2 (CHIRON). On day 7 and day 14, T cells were further stimulated with peptide-pulsed autologous DCs. The DCs were prepared every time by the same method as above. […]

peptide-pulsed C1R-A03 [2] = assay: IFN-gamma ELISA of CTL line and CTL clone (HLA-A*0301); assay type: cell-based, human
Method: CTLs were propagated in culture using methods similar to those disclosed by Riddell et al. (Walter E A et al., N Engl J Med 1995, 333(16): 1038-44; Riddell S R et al., Nat Med 1996, 2(2): 216-23). The CTLs were co-cultured in a total of 25 ml AIM-V medium containing 5% AS (AIM-V/5% AS) and 40 ng/ml anti-CD3 antibody with two types of Mitomycin C-treated human B lymphoblastoid cell lines at 5×10^6 cells/flask. One day after beginning of the culturing, 120 IU/ml IL-2 was added to the culture. On days 5, 8 and 11, a fresh AIM-V/5% AS medium containing 30 IU/ml IL-2 was added to the culture (Tanaka H et al., Br J Cancer 2001, 84(1): 94-9; Umano Y et al., Br J Cancer 2001, 84(8): 1052-7; Uchida N et al., Clin Cancer Res 2004, 10(24): 8577-86; Suda T et al., Cancer Sci 2006, 97(5): 411-9; Watanabe T et al., Cancer Sci 2005, 96(8): 498-506).
Dilution of CTLs was carried out to make 0.3, 1 and 3 cells/well in 96 round-bottomed microtiter plates (Nalge Nunc International). The CTLs were co-cultured with two types of Mitomycin C-treated human B lymphoblastoid cell lines at 1×10^4 cells/well in a total of 150 micro-1/well AIM-V/5% AS medium with 30 ng/ml anti-CD3 antibody and 125 IU/ml IL-2. Ten days later, IL-2 was added to the medium at 50 micro-1/well to reach a final concentration of 125 IU/ml. […]

[3] = tested on: COS7 cells transfected with both KOC1 and HLA-A*0301; assay: Specific CTL activity against target cells expressing KOC1 and HLA-A*0301; assay type: cell-based, African green monkey; details: listed as KOC1-A03-10-120
Method: Specifically, peptide-pulsed C1R-A03 (1×10^4 cells/well) was prepared as the stimulator cell. The induced CTLs, i.e., CTL lines and CTL clones, were used as the responder cell. The IFN-gamma ELISPOT assay and IFN-gamma ELISA were performed according to the manufacturer's manual.
A cDNA encoding the open-reading frame of a target gene or HLA-A*0301 was amplified by PCR. The PCR-amplified product was cloned into an expression vector. Either or both of the target gene-expressing vector and the HLA-A*0301-expressing vector were transfected into […], which is a cell line negative for the target gene and HLA, using Lipofectamine 2000 (Invitrogen) following the manufacturer's recommended protocol. Two days after transfection, the transfected cells were harvested using versene (Invitrogen), and used as the target cell for CTL activity assay (5×10^4 cells/well).
The CTL clone established against KOC1-A03-10-120 (SEQ ID NO: 27) was investigated for their ability to recognize target cells expressing KOC1 and the HLA-A*0301 molecule. COS7 cells transfected with both full-length KOC1 and the HLA-A*0301 gene (a specific model of target cells expressing KOC1 and the HLA-A*0301 gene) were prepared as the target cell. COS7 cells transfected with either full-length KOC1 or HLA-A*0301 were prepared as the control.

Sequence: AVVNVTYSSK (a peptide derived from KOC1) [SEQ ID NO: 27]
- peptide-specific CTL activity (IFN-gamma production), ELISPOT (peptide-pulsed C1R-A03 [1]): potent IFN-gamma production
- IFN-gamma production of CTL clone, ELISA (peptide-pulsed C1R-A03 [2]; CTL clone by limiting dilution, peptide-pulsed C1R-A03, listed as KOC1-A03-10-120): Potent IFN-gamma production
- IFN-gamma production of CTL line, ELISA (peptide-pulsed C1R-A03 [2]; CTL line, target cells pulsed with the peptide vs not pulsed, C1R-A03): potent IFN-gamma production
- specific CTL activity of CTL clone against target cells expressing KOC1 and HLA-A*0301 ([3]; COS7 transfected with both full-length KOC1 and HLA-A*0301): specific CTL activity; also recorded: potent CTL activities
- specific CTL activity of CTL clone against control cells ([3]; COS7 transfected with either full-length KOC1 or HLA-A*0301): a significant specific CTL activity was not shown; also recorded: a significant specific CTL activity was not detected
